This is an account of results in US9850227B2 (YUHAN CORPORATION, priority 2011, dated 2017).

As a reminder, the EC50 is the midpoint of the concentration-response curve.

Counter-ions that a name gives are not always drawn.

This experiment addresses T1, human 5-HT4(a) (Homo sapiens, UniProt Q13639).
T1 construct: host or cells: GeneBIAzer HTR4-CRE-bla CHO-K1 cells
Kind of experiment: Evaluation of agonistic activity in CHO-K1 cells expressing human 5-HT4(a) (GeneBIAzer HTR4-CRE-bla CHO-K1 cells, beta-lactamase fluorescence ratio, EC50 from 8 concentrations). Type of experiment: cell-based. As for the experimental part:
Evaluation of Agonistic Activity in CHO-K1 Cells Expressing Human 5-HT4(a)
As CHO-K1 cells stably expressing human 5-HT4(a), we used the GeneBIAzer HTR4-CRE-bla CHO-K1 cells (Invitrogen Corp.). The cells were cultured, under the condition of 37° C. and 5% CO2, in a DMEM supplemented with 10% fetal bovine serum (FBS), 25 mM HEPES (pH7.4), 600 μg/ml hygromycin B, 0.1 mM non-essential amino acids, 100 unit/ml penicillin and 100 μg/ml streptomycin. Subcultures were performed three times per one week, each being at less than 80% confluence. At the previous day before treating test compounds, the cells were collected using 0.5% trypsin/EDTA and then diluted with a DMEM supplemented with 1% FBS, 25 mM HEPES, and 0.1 mM non-essential amino acids into 3.125×10^5 cells/ml. 32 μl of the diluted cells were added into 384-well plate (10^4 cells per well) and then incubated overnight. After the overnight culture, 8 μl of the medium having 1% of DMSO was added into the cell-free control well and the non-stimulating control well, respectively. 8 μl of the respective test compound dilutions (which had been prepared by diluting by 100-times with the medium as mentioned in the above) having 1% of DMSO were added to the respective remaining wells. After being cultured in the incubator for 5 hours, the wells of the 384-plate were treated with the substrate solution (8 μl per well) prepared according to the vendor's instruction (i.e., Invitrogen's instruction), and then incubated in the dark room for additional two hours. Agonistic activities on 5-HT4 receptor were evaluated, on the basis of fluorescence values of the cleavage-products by beta-lactamase. After exciting to 410 nm of wavelength using a fluorescence detector (Genios Pro), we measured the fluorescence values at two emission wavelengths (first wavelength: 465 nm, second wavelength: 535 nm). Data were analyzed on the basis of the ratio of fluorescence intensities of each well at the respective wavelengths. Each EC50 value was calculated by non-linear regression analysis using the “GraphPad Prism” program, based on the activities according to 8-different concentrations of the test compounds.

T1 sequence (Q13639 1-387 isoform Q13639-2): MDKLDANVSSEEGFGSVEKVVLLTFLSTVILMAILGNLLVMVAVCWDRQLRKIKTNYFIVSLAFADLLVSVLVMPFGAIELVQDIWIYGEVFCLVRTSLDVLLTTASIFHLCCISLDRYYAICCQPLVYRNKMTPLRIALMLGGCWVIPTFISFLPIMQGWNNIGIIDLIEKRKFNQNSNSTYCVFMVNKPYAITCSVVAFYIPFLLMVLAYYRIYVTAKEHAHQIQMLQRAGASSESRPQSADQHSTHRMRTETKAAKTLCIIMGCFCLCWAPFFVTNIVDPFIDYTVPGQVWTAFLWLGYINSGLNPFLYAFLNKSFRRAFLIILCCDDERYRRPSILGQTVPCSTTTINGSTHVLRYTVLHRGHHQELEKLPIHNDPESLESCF

Consider `CCCc1cc(N2CCCCC2CC)nc(Nc2cccc(C#N)c2)n1` (centres unmarked) [Example 111, 3-[4-(2-ethylpiperidin-1-yl)-6-propylpyrimidin-2-ylamino]benzonitrile], for which the EC50 was found to be 0.091 nM.

For the compound `CCCc1cc(N2CCCC(NCC)C2)nc(Nc2ccc(C)c(C#N)c2)n1` (centres unmarked) [Example 297, 5-[4-(3-ethylaminopiperidin-1-yl)-6-propylpyrimidin-2-ylamino]-2-methylbenzonitrile dihydrochloride], the EC50 was 0.0024 nM.

Turning to `CCCc1cc(N2CCCCC2CCO)nc(Nc2ccc3cc[nH]c3c2)n1` (centres unmarked) [Example 74, 2-{1-[2-(1H-indol-6-ylamino)-6-propylpyrimidin-4-yl]piperidin-2-yl}ethanol], the concentration giving a half-maximal response (EC50) was 0.063 nM.

In the case of `CCCc1cc(N2CCCC(NC(C)=O)C2)nc(Nc2ccc(N)c([N+](=O)[O-])c2)n1` (centres unmarked) [Example 275, N-{1-[2-(4-amino-3-nitrophenylamino)-6-propylpyrimidin-4-yl]piperidin-3-yl}acetamide], the EC50 came out at 0.0034 nM.

With `CCCc1cc(N2CCC[C@@H](NC)C2)nc(Nc2ccc(F)c(C#N)c2)n1` [Example 282, (R)-2-fluoro-5-[4-(3-methylaminopiperidin-1-yl)-6-propylpyrimidin-2-ylamino]benzonitrile], the EC50 came to 0.073 nM.

On to `CCCc1cc(N2CCC[C@@H](N)C2)nc(Nc2ccc3cc[nH]c3c2)n1` [Example 264, (R)—N-[4-(3-aminopiperidin-1-yl)-6-propylpyrimidin-2-yl]-1H-indol-6-amine], for which the EC50 worked out at 0.328 nM.

Regarding `CCCc1cc(N2CCCCC2CCO)nc(Nc2ccc(C)c(Cl)c2)n1` (centres unmarked) [Example 140, 2-{1-[2-(3-chloro-4-methylphenylamino}-6-propylpyrimidin-4-yl]piperidin-2-yl}ethanol], the EC50 was found to be 0.28 nM.

Take `CCCc1cc(N2CCCC3CCCCC32)nc(Nc2cccc(SC)c2)n1` (centres unmarked) [Example 198, N-(3-methylthiophenyl)-4-(octahydroquinolin-1(2H)-yl)-6-propylpyrimidin-2-amine]: the half-maximal effective concentration (EC50) is 0.4 nM.

As for `CCCCc1cc(N2CCC[C@@H](NC)C2)nc(Nc2ccc(C)c(OC)c2)n1` [Example 318, (R)-4-butyl-N-(3-methoxy-4-methylphenyl)-6-[3-(methylamino)piperidin-1-yl]pyrimidin-2-amine], the concentration for a half-maximal effect (EC50) was determined as 0.025 nM.

Turning to `CCCCCN[C@@H]1CCCN(c2cc(CCCC)nc(Nc3ccc(C)c(C#N)c3)n2)C1` [Example 301, (R)-5-({4-butyl-6-[3-(pentylamino)piperidin-1-yl]pyrimidin-2-yl}amino)-2-methylbenzonitrile], the EC50 was 0.019 nM.

`CCCc1cc(N2CCC[C@@H](NC)C2)nc(Nc2ccc(C)c(OC)c2)n1` [Example 309, (R)—N-(3-methoxy-4-methylphenyl)-4-[3-(methylamino)piperidin-1-yl]-6-propylpyrimidin-2-amine]: the half-maximal effective concentration (EC50) came to 0.011 nM.

Regarding `CCCc1cc(N2CCC[C@@H](NCCC(C)C)C2)nc(Nc2ccc(C)c(C#N)c2)n1` [Example 210, (R)-5-{4-[3-(isopentylamino)piperidin-1-yl]-6-propylpyrimidin-2-ylamino}-2-methylbenzonitrile], the concentration giving a half-maximal response (EC50) is 0.022 nM.

On to `CCCc1cc(N2CCC[C@@H](N)C2)nc(Nc2ccc(F)c(N)c2)n1` [Example 259, (R)—N^1-[4-(3-aminopiperidin-1-yl)-6-propylpyrimidin-2-yl]-4-fluorobenzene-1,3-diamine], for which the EC50 turned out to be 0.084 nM.

On to `CCCc1cc(N2CCC[C@@H](N)C2)nc(Nc2ccc(C)c([N+](=O)[O-])c2)n1` [Example 265, (R)-4-(3-aminopiperidin-1-yl)-N-(4-methyl-3-nitrophenyl)-6-propylpyrimidin-2-amine], for which the 50% effective concentration (EC50) was found to be 0.049 nM.

As for `CCCCc1cc(N2CCC[C@@H](NC(C)=O)C2)nc(Nc2ccc(C)c(C#N)c2)n1` [Example 295, (R)—N-{1-[6-butyl-2-(3-cyano-4-methylphenylamino)pyrimidin-4-yl]piperidin-3-yl}acetamide], the 50% effective concentration (EC50) is 0.0086 nM.

For `CCCc1cc(N2CCC[C@H](NCc3ccc[nH]3)C2)nc(Nc2ccc(C)c(C#N)c2)n1` [Example 159, (S)-5-(4-{3-[(1H-pyrrol-2-yl)methylamino]piperidin-1-yl}-6-propylpyrimidin-2-ylamino)-2-methylbenzonitrile], the concentration giving a half-maximal response (EC50) came to 0.046 nM.

`CCCCc1cc(N2CCC[C@@H](N)C2)nc(Nc2ccc(C)c(N)c2)n1` [Example 346, (R)—N^1-[4-(3-aminopiperidin-1-yl)-6-butylpyrimidin-2-yl]-4-methylbenzene-1,3-diamine]: the EC50 is 0.135 nM.

As for `CCCc1cc(N2CCC[C@H](NCC)C2)nc(Nc2ccc(C)c(C#N)c2)n1` [Example 296, (S)-5-[4-(3-ethylaminopiperidin-1-yl)-6-propylpyrimidin-2-ylamino]-2-methylbenzonitrile dihydrochloride], the EC50 came out at 0.015 nM.

With `CCCc1cc(N2CCC[C@@H](NCC)C2)nc(Nc2ccc(F)c(N)c2)n1` [Example 289, (R)—N^1-[4-(3-ethylaminopiperidin-1-yl)-6-propylpyrimidin-2-yl]-4-fluorobenzene-1,3-diamine], the EC50 is 0.0065 nM.

On to `CCCc1cc(N2CCC[C@@H](N)C2)nc(Nc2ccc(N)c(C#N)c2)n1` [Example 261, (R)-2-amino-5-{[4-(3-aminopiperidin-1-yl)-6-propylpyrimidin-2-yl]amino}benzonitrile], for which the EC50 amounted to 0.105 nM.

Turning to `CCCc1cc(N2CCCCC2CCO)nc(Nc2ccc3nc(C(F)(F)F)[nH]c3c2)n1` (centres unmarked) [Example 136, 2-(1-{6-propyl-2-[2-(trifluoromethyl)-1H-benzo[d]imidazol-6-ylamino]pyrimidin-4-yl}piperidin-2-yl)ethanol], the concentration giving a half-maximal response (EC50) is 0.35 nM.

In the case of `CCCc1cc(N2CCCCC2CCO)nc(Nc2ccc(C)c(C#N)c2)n1` (centres unmarked) [Example 177, 5-{4-[2-(2-hydroxyethyl)piperidin-1-yl]-6-propylpyrimidin-2-ylamino}-2-methylbenzonitrile], the half-maximal effective concentration (EC50) is 0.049 nM.

On to `CCCCc1cc(N2CCC[C@@H](NCCCSC)C2)nc(Nc2ccc(C)c(C#N)c2)n1` [Example 305, (R)-5-{[4-butyl-6-(3-{[3-(methylthio)propyl]amino}piperidin-1-yl)pyrimidin-2-yl]amino}-2-methylbenzonitrile], for which the EC50 is 0.0091 nM.

On to `CCCCc1cc(N2CCC[C@@H](N)C2)nc(Nc2ccc(N)c(C#N)c2)n1` [Example 350, (R)-2-amino-5-{[4-(3-aminopiperidin-1-yl)-6-butylpyrimidin-2-yl]amino}benzonitrile], for which the 50% effective concentration (EC50) turned out to be 0.028 nM.

In the case of `CCCc1cc(N2CCC[C@@H](NC(=O)CO)C2)nc(Nc2ccc(F)c(C#N)c2)n1` [Example 246, (R)—N-{1-[2-(3-cyano-4-fluorophenylamino)-6-propylpyrimidin-4-yl]piperidin-3-yl}-2-hydroxyacetamide], the EC50 is 0.06 nM.

With `CCCc1cc(N2CCC[C@@H](NC)C2)nc(Nc2ccc(N)c(C(F)(F)F)c2)n1` [Example 285, (R)—N^1-[4-(3-methylaminopiperidin-1-yl)-6-propylpyrimidin-2-yl]-3-(trifluoromethyl)benzene-1,4-diamine], the concentration giving a half-maximal response (EC50) turned out to be 0.005 nM.

Consider `CCCCc1cc(N2CCC[C@@H](N)C2)nc(Nc2ccc(C)c(C)c2)n1` [Example 347, (R)-4-(3-aminopiperidin-1-yl)-6-butyl-N-(3,4-dimethylphenyl)pyrimidin-2-amine], for which the 50% effective concentration (EC50) came out at 0.391 nM.

`CCCCN[C@H]1CCCN(c2cc(CCC)nc(Nc3ccc(C)c(C#N)c3)n2)C1` [Example 154, (S)-5-{4-[3-(butylamino)piperidin-1-yl]-6-propylpyrimidin-2-ylamino}-2-methylbenzonitrile]: the 50% effective concentration (EC50) is 0.041 nM.

As to `CCCc1cc(N2CCOCC2)nc(Nc2ccc3cc[nH]c3c2)n1` [Example 77, N-(4-morpholino-6-propylpyrimidin-2-yl)-1H-indol-6-amine], the EC50 was 0.084 nM.

In the case of `CCCN[C@@H]1CCCN(c2cc(CCC)nc(Nc3cccc(C#N)c3)n2)C1` [Example 223, (R)-3-{4-[3-(propylamino)piperidin-1-yl]-6-propylpyrimidin-2-ylamino}benzonitrile], the EC50 is 0.045 nM.

Consider `CCCc1cc(N2CCC[C@@H](NCC3CC3)C2)nc(Nc2ccc(C)c(C#N)c2)n1` [Example 217, (R)-5-{4-[3-(cyclopropylmethylamino)piperidin-1-yl]-6-propylpyrimidin-2-ylamino}-2-methylbenzonitrile], for which the half-maximal effective concentration (EC50) was determined as 0.013 nM.

For `CCCc1cc(N2CCC[C@@H](NC(=O)CO)C2)nc(Nc2ccc(F)c(N)c2)n1` [Example 250, (R)—N-{1-[2-(3-amino-4-fluorophenylamino)-6-propylpyrimidin-4-yl]piperidin-3-yl}-2-hydroxyacetamide], the EC50 is 0.027 nM.
